Test results taken from patent publication US9834542B2, “LXR modulators” (BRISTOL-MYERS SQUIBB COMPANY, priority 2013, dated 2017).

Target: T1, LXRβ (Homo sapiens, UniProt P55055)
T1 construct: Co-transfection expression plasmids, comprising full-length LXRα (pCMX-h LXRα[…] or LXRβ (pCMX-hLXRβ)); expressed in transfected cells; host or cells: CV-1 African Green Monkey Kidney Cells
T1 sequence (P55055 1-460): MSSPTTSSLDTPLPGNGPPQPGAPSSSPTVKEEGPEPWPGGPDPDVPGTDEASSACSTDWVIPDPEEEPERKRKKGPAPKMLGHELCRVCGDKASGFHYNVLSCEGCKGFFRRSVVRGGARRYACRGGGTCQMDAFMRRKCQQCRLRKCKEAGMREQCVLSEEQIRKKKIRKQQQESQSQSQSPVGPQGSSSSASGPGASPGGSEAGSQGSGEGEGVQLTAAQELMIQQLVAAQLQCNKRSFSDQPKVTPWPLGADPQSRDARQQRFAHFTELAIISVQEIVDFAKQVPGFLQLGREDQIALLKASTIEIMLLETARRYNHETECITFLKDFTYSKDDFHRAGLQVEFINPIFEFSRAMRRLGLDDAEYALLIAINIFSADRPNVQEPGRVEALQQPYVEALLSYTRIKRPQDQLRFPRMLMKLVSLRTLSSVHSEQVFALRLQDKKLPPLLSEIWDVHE
T1 sequence (P19793 1-462 partner): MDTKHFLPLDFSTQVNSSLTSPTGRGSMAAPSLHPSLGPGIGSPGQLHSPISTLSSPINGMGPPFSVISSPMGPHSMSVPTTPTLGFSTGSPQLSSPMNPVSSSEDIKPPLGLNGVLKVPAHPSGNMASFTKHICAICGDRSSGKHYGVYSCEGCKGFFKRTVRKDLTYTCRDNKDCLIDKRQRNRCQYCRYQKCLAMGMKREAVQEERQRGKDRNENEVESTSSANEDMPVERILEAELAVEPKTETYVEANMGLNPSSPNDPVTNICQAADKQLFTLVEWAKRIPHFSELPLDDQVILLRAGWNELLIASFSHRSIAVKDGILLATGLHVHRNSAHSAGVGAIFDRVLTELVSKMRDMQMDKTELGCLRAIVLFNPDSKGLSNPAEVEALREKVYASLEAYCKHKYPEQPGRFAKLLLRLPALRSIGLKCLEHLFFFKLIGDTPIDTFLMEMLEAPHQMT
Test: Co-transfection assay (LXRE luciferase reporter), LXRβ
Format: cell-based
Parameters: % Efficacy: concentration or dose not given beside the values
Conditions: for EC50: CV-1 cells transfected with pCMX-hLXRβ and LXREx1-Tk-Luciferase, 20 hours incubation; for Emax: read-out: % Efficacy
Summary of the method: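 Cell-based LXRβ agonism measured as LXRE-luciferase induction in transiently transfected CV-1 cells after 20 h treatment. Potency is the curve-fit EC50; efficacy is expressed as percent of a full-agonist control's maximal response.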

[1] = LXRβ co-transfection, relative to high control 1-(2,4-difluorobenzyl)-2-oxo-6-(4-phenoxyphenyl)-4-(trifluoromethyl)-1,2-dihydropyridine-3-carbonitrile

| SMILES | EC50 | Emax [1] | % Efficacy [1] |
| --- | --- | --- | --- |
| Cc1nc(-c2cc(-c3cc(F)c(CO)c(S(C)(=O)=O)c3)ccc2-n2cc(C(F)(F)F)nc2C)c(-c2ccc(C(F)(F)F)nc2Cl)o1 [Example 477, (3′-(5-(2-chloro-6-(trifluoromethyl)pyridin-3-yl)-2-methyloxazol-4-yl)-3-fluoro-4′-(2-methyl-4-(trifluoromethyl)-1H-imidazol-1-yl)-5-(methylsulfonyl)biphenyl-4-yl)methanol] | 271 nM | 66% |  |
| Cc1nc(C(F)(F)F)cn1-c1ccc(-c2cccc(S(C)(=O)=O)c2)cc1-c1nc(C2CC2)cn1-c1ccc(Cl)cc1 [Example 646, 1-(4-chlorophenyl)-4-cyclopropyl-2-(4-(2-methyl-4-(trifluoromethyl)-1H-imidazol-1-yl)-3′-(methylsulfonyl)-[1,1′-biphenyl]-3-yl)-1H-imidazole] | 572 nM | 44% |  |
| Cc1nc(-c2cc(-c3cccc(S(C)(=O)=O)c3)ccc2-n2cc(C(F)(F)F)nc2C)c(-c2ccc(OC(CF)CF)c(F)c2)o1 [Example 406, 5-(4-(1,3-difluoropropan-2-yloxy)-3-fluorophenyl)-2-methyl-4-(4-(2-methyl-4-(trifluoromethyl)-1H-imidazol-1-yl)-3′-(methylsulfonyl)biphenyl-3-yl)oxazole] | 181 nM | 68% |  |
| Cc1nc(C(F)(F)F)cn1-c1c(F)cc(-c2cc(F)c(CO)c(S(C)(=O)=O)c2)cc1-n1nncc1-c1ccc(Cl)cc1 [Example 198, {3′-[5-(4-chlorophenyl)-1H-1,2,3-triazol-1-yl]-3,5′-difluoro-5-(methylsulfonyl)-4′-[2-methyl-4-(trifluoromethyl)-1H-imidazol-1-yl]biphenyl-4-yl}methanol] | 92 nM | 87% |  |
| Cc1cc(-c2oc(C)nc2-c2cc(-c3cc(F)c(CO)c(S(C)(=O)=O)c3)ccc2-n2cc(C(F)(F)F)nc2C)cc(Cl)n1 [Example 452, (3′-(5-(2-chloro-6-methylpyridin-4-yl)-2-methyloxazol-4-yl)-3-fluoro-4′-(2-methyl-4-(trifluoromethyl)-1H-imidazol-1-yl)-5-(methylsulfonyl)biphenyl-4-yl)methanol] | 83 nM |  | 55% |
| Cc1nc(C(F)(F)F)cn1-c1ccc(-c2cccc(S(=O)(=O)C(C)C)c2)cc1-n1nncc1-c1ccc(OC(F)(F)F)cc1 [Example 98, 1-{3′-[(1-methylethyl)sulfonyl]-4-[2-methyl-4-(trifluoromethyl)-1H-imidazol-1-yl]biphenyl-3-yl}-5-{4-[(trifluoromethyl)oxy]phenyl}-1H-1,2,3-triazole] | 1030 nM | 91% |  |
| COc1ccc(-c2cnnn2-c2cc(-c3cccc(S(C)(=O)=O)c3)ccc2-n2cc(C(F)(F)F)nc2C)cc1C(F)(F)F [Example 74, 5-[4-(methyloxy)-3-(trifluoromethyl)phenyl]-1-{3′-(methylsulfonyl)-4-[2-methyl-4-(trifluoromethyl)-1H-imidazol-1-yl]biphenyl-3-yl}-1H-1,2,3-triazole] | 488 nM | 72% |  |
| CNS(=O)(=O)c1cccc(-c2cc(F)c(-n3cc(C(F)(F)F)nc3C)c(-n3nncc3-c3ccc(Cl)cc3)c2)c1 [Example 209, 3′-[5-(4-chlorophenyl)-1H-1,2,3-triazol-1-yl]-5′-fluoro-N-methyl-4′-[2-methyl-4-(trifluoromethyl)-1H-imidazol-1-yl]biphenyl-3-sulfonamide] | 214 nM | 80% |  |
| Cc1nc(-c2cc(-c3cccc(S(=O)(=O)C(F)F)c3)ccc2-n2cc(C(F)(F)F)nc2C)c(-c2ccc3c(c2)OC(F)(F)O3)o1 [Example 417, 5-(2,2-difluorobenzo[d][1,3]dioxol-5-yl)-4-(3′-(difluoromethylsulfonyl)-4-(2-methyl-4-(trifluoromethyl)-1H-imidazol-1-yl)biphenyl-3-yl)-2-methyloxazole] | 43 nM | 56% |  |
| Cc1nc(C(F)(F)F)cn1-c1ccc(-c2cccc(S(C)(=O)=O)c2)cc1-c1nc(C2CC2)oc1-c1ccc2c(c1)OC(F)(F)O2 [Example 482, 2-cyclopropyl-5-(2,2-difluorobenzo[d][1,3]dioxol-5-yl)-4-(4-(2-methyl-4-(trifluoromethyl)-1H-imidazol-1-yl)-3′-(methylsulfonyl)biphenyl-3-yl)oxazole] | 40 nM | 71% |  |
| COc1cc(-c2oc(C)nc2-c2cc(-c3cccc(S(C)(=O)=O)c3)ccc2-n2cc(C(F)(F)F)nc2C)ccc1OC(F)F [Example 380, 5-(4-(difluoromethoxy)-3-methoxyphenyl)-2-methyl-4-(4-(2-methyl-4-(trifluoromethyl)-1H-imidazol-1-yl)-3′-(methylsulfonyl)biphenyl-3-yl)oxazole] | 53 nM | 91% |  |
| Cc1cc(OC(F)(F)F)ccc1-c1cnnn1-c1cc(-c2cccc(S(C)(=O)=O)c2)ccc1-n1cc(C(F)(F)F)nc1C [Example 57, 1-{3′-(methylsulfonyl)-4-[2-methyl-4-(trifluoromethyl)-1H-imidazol-1-yl]biphenyl-3-yl}-5-{2-methyl-4-[(trifluoromethyl)oxy]phenyl}-1H-1,2,3-triazole] | 215 nM | 82% |  |
| COCCc1nc(-c2cc(-c3cc(F)c(CO)c(S(C)(=O)=O)c3)ccc2-n2cc(C(F)(F)F)nc2C)c(-c2ccc(OC(F)(F)F)cc2)o1 [Example 527, (3-fluoro-3′-(2-(2-methoxyethyl)-5-(4-(trifluoromethoxy)phenyl)oxazol-4-yl)-4′-(2-methyl-4-(trifluoromethyl)-1H-imidazol-1-yl)-5-(meththsulfonyl)-[1,1′-biphenyl]-4-yl)methanol] | 107 nM | 54% |  |
| COc1ccc(-c2oc(C)nc2-c2cc(-c3cccc(S(C)(=O)=O)c3)ccc2-n2cc(C(F)(F)F)nc2C)cn1 [Example 569, 5-(6-methoxypyridin-3-yl)-2-methyl-4-(4-(2-methyl-4-(trifluoromethyl)-1H-imidazol-1-yl)-3′-(methylsulfonyl)-[1,1′-biphenyl]-3-yl)oxazole] | 214 nM | 90% |  |
| Cc1nc(-c2cc(-c3cc(F)c(CO)c(S(C)(=O)=O)c3)ccc2-n2cc(C(F)(F)F)nc2C)c(-c2cccnc2Cl)o1 [Example 549, (3′-(5-(2-chloropyridin-3-yl)-2-methyloxazol-4-yl)-3-fluoro-4′-(2-methyl-4-(trifluoromethyl)-1H-imidazol-1-yl)-5-(methylsulfonyl)-[1,1′-biphenyl]-4-yl)methanol] | 483 nM | 87% |  |
| COc1ncc(-c2oc(C)nc2-c2cc(-c3cccc(S(C)(=O)=O)c3)ccc2-n2cc(C(F)(F)F)nc2C)cc1F [Example 439, 5-(5-fluoro-6-methoxypyridin-3-yl)-2-methyl-4-(4-(2-methyl-4-(trifluoromethyl)-1H-imidazol-1-yl)-3′-(methylsulfonyl)biphenyl-3-yl)oxazole] | 410 nM | 80% |  |
| Cc1nc(-c2cc(-c3cc(F)cc(S(C)(=O)=O)c3)ccc2-n2cc(C(F)(F)F)nc2C)c(-c2ccc(OC(F)F)c(F)c2)o1 [Example 462] | 233 nM | 73% |  |
| Cc1nc(-c2cc(-c3cc(F)c(CO)c(S(C)(=O)=O)c3)ccc2-n2cc(C(F)(F)F)nc2C)c(-c2ccc(OC(F)F)c(OCC3CC3)c2)o1 [Example 383] | 23 nM | 67% |  |
| COCc1c(F)cc(-c2cc(F)c(-n3cc(C(F)(F)F)nc3C)c(-n3nncc3-c3ccc(Cl)cc3)c2)cc1S(C)(=O)=O [Example 207, 5-(4-chlorophenyl)-1-{3′,5-difluoro-4′-[(methyloxy)methyl]-5′-(methylsulfonyl)-4-[2-methyl-4-(trifluoromethyl)-1H-imidazol-1-yl]biphenyl-3-yl}-1H-1,2,3-triazole] | 176 nM | 76% |  |
| Cc1nc(-c2cc(-c3cccc(S(C)(=O)=O)c3)ccc2-n2cc(C(F)(F)F)nc2C)c(-c2ccc(OC(F)F)c(OC(F)F)c2)o1 [Example 392, 5-(3,4-bis(difluoromethoxy)ohenyl)-2-methyl-4-(4-(2-methyl-4-(trifluoromethyl)-1H-imidazol-1-yl)-3′-(methylsulfonyl)biphenyl-3-yl)oxazole] | 187 nM | 53% |  |
